Results on one molecule are retold here after US5702728A, “Clam extract preparation, the method of preparation and use thereof” (priority 1993, dated 1997).

The subject of test [1] is Body Torsion Reaction of Mice Caused by Acetic Acid. Description: Body torsion reaction of mice caused by acetic acid, intrarectal administration. The test is classed as in vivo. The settings on record: 7.5 mg/kg. On the procedure:
(§1) The purpose of the test is to observe effects of the suppository prepared by the clam extract composition of the invention on pains of mice caused by chemical and electric irritation, and the time of initiation and duration of the effect.
(§2) The clam extract composition of the invention was dissolved in 2 mol acetic acid and the pH value was adjusted to be 6.5~7.0. Then normal saline in an adequate amount was added.
(§3) Indomethacin: produced by Nantong Second Pharmaceutical Factory, with the lot number of 860321, which was formulated into a suspension with 2% of water-soluble starch paste.
After fasting for 12 hours, 60 mice were randomly allotted into 6 groups based on their body weight and sex. The drug was intrarectally administered in the dosage indicated in Table 3 and the volume of drug administered was 0.05 ml per mouse. 35 minutes later, 0.20 ml of 0.6% acetic acid was intraperitoneally injected to each mouse. The number of body torsion reactions (abdominal excavation, extension of trunk and hind limbs, and elevation of buttock) observed within 15 minutes after the injection of acetic acid was recorded.

Test [2] has as its system Pain Threshold of Tail Roots of Mice Caused by Electric Irritation. Put plainly: Pain threshold of tail roots of mice, electric irritation. The format is in vivo. The settings on record: 7.5 mg/kg; for Pain threshold: before medication 0.22 ± 0.08, P < 0.05; for Increasing percentage of the pain threshold: intrarectal, P < 0.01 vs control. As to the method: as §1, §2, §3
An electric stimulator of Model NEN-7103, and an isolator of Model SS-102J, made in Japan.
After fasting for 12 hours, 50 mice were randomly allotted into 5 groups based on their body weight and sex. The root of mouse's tail was stimulated with electric current of square wave (10 ms of pulse width and 1 Hz of the frequency). The pain threshold was determined as the electric intensity which just makes the mouse screaming. The drug was intrarectally administered with the volume of 0.05 ml per mouse. […]

Test [3] deals with Body Torsion Reaction of Mice Caused by Acetic Acid. Put plainly: Body torsion reaction of mice caused by acetic acid, oral administration. The settings on record: 0.03 (head mg/kg; text 30 mg/kg). The format is in vivo, Kunming strain mice. On the procedure: Clam extract composition of the invention was dissolved in 2N acetic acid and the pH value was adjusted to be 6.5~7.0. The normal saline in an adequate amount was added to formulate a solution. Indomethacin: produced by Shijiazhuang Pharmaceutical Factory, with the lot number of 009011021, which was formulated into a suspension with 2% of starch paste.
Kunming strain mice, male and female, with body weight of 20±2 g, provided by the Department of Animals of Beijing Medical University.
Fifty mice were randomly allotted into 5 groups based on their body weight and sex. In the control group, 0.2 ml/kg body weight of normal saline was administered per oral; while in the positive group, 30 mg/kg of indomethacin was administered per oral. […] 90 minutes later, 0.2 ml of 0.6% acetic acid per mouse was intraperitoneally injected and the number of body torsion reactions (abdominal excavation, extension of trunk and hind limbs, and elevation of buttock) of the mouse observed within 15 minutes after the injection of acetic acid was recorded.

Turning to `COc1ccc2c(c1)c(CC(=O)O)c(C)n2C(=O)c1ccc(Cl)cc1` [Indomethacin], the Inhibition rate in test [1] was found to be 93.1%; in test [3] it was 93.7%. Further, the “Number of body torsions” value is on record as 2.7 ± 4.1 n in test [1] (control 39.3 ± 14.4) and 2.8 ± 4.8 n in test [3] (control 44.1 ± 12.8, P < 0.01). Further, the Pain threshold was determined as 0.32 ± 0.06 mA in test [2] (20 min, control 0.25 ± 0.08); 0.41 ± 0.12 mA in test [2] (40 min, control 0.28 ± 0.11); 0.44 ± 0.15 mA in test [2] (60 min, control 0.26 ± 0.13); 0.41 ± 0.13 mA in test [2] (90 min, control 0.26 ± 0.13); 0.38 ± 0.13 mA in test [2] (120 min, control 0.25 ± 0.11). Further, the “Increasing percentage of the pain threshold” value in test [2] (20 min) worked out at 37.4 ± 18.4 percentage; in test [2] (40 min), 71.4 ± 39.4 percentage; in test [2] (60 min), 86.3 ± 45.9 percentage; in test [2] (90 min), 72.5 ± 59.1 percentage; in test [2] (120 min), 69.6 ± 62.3 percentage.
